Laboratory results: ChEMBL document CHEMBL3886649, “Compounds and compositions for inhibiting the activity of ABL1, ABL2 and BCR-ABL1” (2016)

Target: Tyrosine-protein kinase ABL1 (Homo sapiens, UniProt P00519)
Assay: Radiometric Filter-Binding Assay: For determination of ABL kinase activity, the radiometric filter-binding assay was used. The assay was performed by mixing 10 μL of the compound pre-diluted with 10 μL of ATP ([…] with 0.1 μCi [γ-33P]-ATP) with the phospho-acceptor peptide poly[Ala6Glu2LysHBr5Tyr1]=polyAEKY) in 20 mM Tris/HCl pH 7.5, 1 mM DTT, 10 mM MgCl2, 0.01 mM Na3VO4, 50 mM NaCl. 10 μL …

Tyrosine-protein kinase ABL1, sequence (P00519 whole entry): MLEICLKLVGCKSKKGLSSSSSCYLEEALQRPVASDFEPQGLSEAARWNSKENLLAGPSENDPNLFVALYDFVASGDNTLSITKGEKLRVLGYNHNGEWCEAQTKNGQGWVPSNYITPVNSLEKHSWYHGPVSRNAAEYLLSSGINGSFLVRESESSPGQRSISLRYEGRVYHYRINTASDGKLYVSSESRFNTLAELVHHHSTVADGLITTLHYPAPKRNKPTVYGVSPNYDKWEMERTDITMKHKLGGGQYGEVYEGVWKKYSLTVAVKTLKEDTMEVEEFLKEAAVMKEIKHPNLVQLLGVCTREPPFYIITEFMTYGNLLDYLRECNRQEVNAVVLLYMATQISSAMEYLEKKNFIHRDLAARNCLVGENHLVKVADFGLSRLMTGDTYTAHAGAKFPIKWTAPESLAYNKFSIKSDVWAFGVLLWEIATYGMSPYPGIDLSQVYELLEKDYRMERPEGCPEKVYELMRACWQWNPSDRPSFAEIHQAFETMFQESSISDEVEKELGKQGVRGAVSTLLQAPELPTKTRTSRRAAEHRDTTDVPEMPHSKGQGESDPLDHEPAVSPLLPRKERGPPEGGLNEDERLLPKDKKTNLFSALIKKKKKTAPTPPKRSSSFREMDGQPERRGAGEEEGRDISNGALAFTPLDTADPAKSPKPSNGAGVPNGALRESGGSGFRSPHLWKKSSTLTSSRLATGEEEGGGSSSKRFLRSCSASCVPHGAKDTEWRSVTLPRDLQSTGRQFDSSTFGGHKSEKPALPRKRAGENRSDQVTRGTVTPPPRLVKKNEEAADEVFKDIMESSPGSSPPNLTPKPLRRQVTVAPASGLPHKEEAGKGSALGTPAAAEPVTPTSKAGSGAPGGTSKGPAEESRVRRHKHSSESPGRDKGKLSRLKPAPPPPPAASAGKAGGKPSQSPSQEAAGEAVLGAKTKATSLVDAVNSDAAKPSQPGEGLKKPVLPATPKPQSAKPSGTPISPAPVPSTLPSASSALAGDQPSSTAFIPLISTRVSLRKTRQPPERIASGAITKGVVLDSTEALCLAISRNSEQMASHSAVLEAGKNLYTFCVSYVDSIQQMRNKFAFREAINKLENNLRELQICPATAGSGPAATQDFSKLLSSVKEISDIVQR

| IC50 [nM] | Compound |
| --- | --- |
| 3 | O=C(Nc1ccc(OC(F)(F)F)cc1)c1cnc(C2CCOCC2)c(-c2cncnc2)c1 |
| 233 | O=C(Nc1ccc(CC(F)(F)F)cc1)c1cccc(-c2cncnc2)c1 |
